Experimental data taken from ChEMBL document CHEMBL5113477, “Membrane acting Povarov-Doebner derived compounds potently disperse preformed multidrug resistant Gram-positive bacterial biofilms” (Eur J Med Chem, 2022).
Converted amounts (≈) assume the structure as drawn. Values belong to the molecule of their own block, whether it stands above or below them.

Tests used:
Format in all cases: functional
Staphylococcus aureus [1] = experiment: Antibacterial activity against Staphylococcus aureus ATCC 25923 assessed as reduction in visible bacterial growth incubated for 18 to 20 hrs by CLSI based broth microdilution analysis; settings: time 18-20 hrs
Staphylococcus aureus [2] = experiment: Antibacterial activity against methicillin-resistant Staphylococcus aureus ATCC 33592 assessed as reduction in visible bacterial growth incubated for 18 to 20 hrs by CLSI based broth microdilution analysis; settings: time 18-20 hrs
Listeria monocytogenes = experiment: Antibacterial activity against Listeria monocytogenes ATCC 19115 assessed as reduction in visible bacterial growth incubated for 18 to 20 hrs by CLSI based broth microdilution analysis; settings: time 18-20 hrs
Enterococcus faecalis [3] = experiment: Antibacterial activity against Enterococcus faecalis ATCC 29212 assessed as reduction in visible bacterial growth incubated for 18 to 20 hrs by CLSI based broth microdilution analysis; settings: time 18-20 hrs
Staphylococcus aureus [4] = experiment: Antibacterial activity against methicillin-resistant Staphylococcus aureus USA 300 assessed as reduction in visible bacterial growth incubated for 18 to 20 hrs by CLSI based broth microdilution analysis; settings: time 18-20 hrs
Staphylococcus aureus [5] = experiment: Antibacterial activity against methicillin-resistant Staphylococcus aureus USA 300 (ARLG 1561) assessed as reduction in visible bacterial growth incubated for 18 to 20 hrs by CLSI based broth microdilution analysis; settings: time 18-20 hrs
Staphylococcus aureus [6] = experiment: Antibacterial activity against methicillin-resistant Staphylococcus aureus USA 300 (ARLG 1567) assessed as reduction in visible bacterial growth incubated for 18 to 20 hrs by CLSI based broth microdilution analysis; settings: time 18-20 hrs
Staphylococcus aureus [7] = experiment: Antibacterial activity against methicillin-resistant Staphylococcus aureus USA 300 (ARLG 1568) assessed as reduction in visible bacterial growth incubated for 18 to 20 hrs by CLSI based broth microdilution analysis; settings: time 18-20 hrs
Staphylococcus aureus [8] = experiment: Antibacterial activity against methicillin-resistant Staphylococcus aureus USA 300 (ARLG 1569) assessed as reduction in visible bacterial growth incubated for 18 to 20 hrs by CLSI based broth microdilution analysis; settings: time 18-20 hrs
Staphylococcus aureus [9] = experiment: Antibacterial activity against methicillin-resistant Staphylococcus aureus USA 300 (ARLG 1570) assessed as reduction in visible bacterial growth incubated for 18 to 20 hrs by CLSI based broth microdilution analysis; settings: time 18-20 hrs
Staphylococcus aureus [10] = experiment: Antibacterial activity against methicillin-resistant Staphylococcus aureus USA 300 (ARLG 1644) assessed as reduction in visible bacterial growth incubated for 18 to 20 hrs by CLSI based broth microdilution analysis; settings: time 18-20 hrs
Staphylococcus aureus [11] = experiment: Antibacterial activity against methicillin-resistant Staphylococcus aureus USA 300 (ARLG 1649) assessed as reduction in visible bacterial growth incubated for 18 to 20 hrs by CLSI based broth microdilution analysis; settings: time 18-20 hrs
Staphylococcus aureus [12] = experiment: Antibacterial activity against methicillin-resistant Staphylococcus aureus USA 300 (ARLG 1663) assessed as reduction in visible bacterial growth incubated for 18 to 20 hrs by CLSI based broth microdilution analysis; settings: time 18-20 hrs
Staphylococcus aureus [13] = experiment: Antibacterial activity against methicillin-resistant Staphylococcus aureus USA 300 (ARLG 1665) assessed as reduction in visible bacterial growth incubated for 18 to 20 hrs by CLSI based broth microdilution analysis; settings: time 18-20 hrs
Enterococcus faecium [14] = experiment: Antibiofilm activity against vancomycin-resistant Enterococcus faecium ATCC 700221 in TSB broth assessed as dispersal of glucose-induced biofilm preincubated with glucose for 48 hrs followed by compound addition and measured after 24 hrs by crystal violet staining based analysis
Staphylococcus aureus [15] = experiment: Antibiofilm activity against methicillin-resistant Staphylococcus aureus USA 300 in TSB broth assessed as dispersal of glucose-induced biofilm preincubated with glucose for 48 hrs followed by compound addition and measured after 24 hrs by crystal violet staining based analysis
Enterococcus faecalis [16] = experiment: Antibiofilm activity against vancomycin-resistant Enterococcus faecalis ATCC 51575 in TSB broth assessed as dispersal of glucose-induced biofilm preincubated with glucose for 48 hrs followed by compound addition and measured after 24 hrs by crystal violet staining based analysis
Enterococcus faecium [17] = experiment: Antibacterial activity against vancomycin-resistant Enterococcus faecium ATCC 700221 assessed as reduction in visible bacterial growth incubated for 18 to 20 hrs by CLSI based broth microdilution analysis; settings: time 18-20 hrs
Enterococcus faecalis [18] = experiment: Antibacterial activity against vancomycin-resistant Enterococcus faecalis ATCC 51575 assessed as reduction in visible bacterial growth incubated for 18 to 20 hrs by CLSI based broth microdilution analysis; settings: time 18-20 hrs

Structure (SMILES): Oc1ccc([C@@H]2Nc3ccc(F)cc3[C@H]3[C@@H]4CC[C@@H](C4)[C@H]32)cc1
MIC (Staphylococcus aureus [1]): > 16 µg/mL

Structure (SMILES): Oc1ccc(-c2nc3ccc(S(F)(F)(F)(F)F)cc3c3c2[C@H]2CC[C@@H]3C2)cc1
MIC (Staphylococcus aureus [1]): > 16 µg/mL

Structure (SMILES): CSc1ccc2c(c1)[C@H]1[C@@H]3CC[C@@H](C3)[C@H]1[C@H](c1ccc(O)cc1)N2
MIC (Staphylococcus aureus [1]): > 16 µg/mL

Structure (SMILES): Oc1ccc([C@@H]2Nc3c(SC(F)(F)F)cccc3[C@H]3[C@@H]4CC[C@@H](C4)[C@H]32)cc1
MIC (Staphylococcus aureus [1]): > 16 µg/mL

Structure (SMILES): CN[C@H](CC(C)C)C(=O)N[C@H]1C(=O)N[C@@H](CC(N)=O)C(=O)N[C@H]2C(=O)N[C@H]3C(=O)N[C@H](C(=O)N[C@H](C(=O)O)c4cc(O)cc(O)c4-c4cc3ccc4O)[C@H](O)c3ccc(c(Cl)c3)Oc3cc2cc(c3O[C@@H]2O[C@H](CO)[C@@H](O)[C@H](O)[C@H]2O[C@H]2C[C@](C)(N)[C@H](O)[C@H](C)O2)Oc2ccc(cc2Cl)[C@H]1O [VANCOMYCIN]
MBC (Staphylococcus aureus [2]): 1 µg/mL (≈ 0.69 µM)
MBC (Staphylococcus aureus [1]): 2 µg/mL (≈ 1.38 µM)
MBC (Listeria monocytogenes): 2 µg/mL (≈ 1.38 µM)
MIC (Listeria monocytogenes): 1 µg/mL (≈ 0.69 µM)
MBC (Enterococcus faecalis [3]): 2 µg/mL (≈ 1.38 µM)
MIC (Enterococcus faecalis [3]): 2 µg/mL (≈ 1.38 µM)
MBC (Staphylococcus aureus [4]): 2 µg/mL (≈ 1.38 µM)
MBC (Staphylococcus aureus [5]): 1 µg/mL (≈ 0.69 µM)
MBC (Staphylococcus aureus [6]): 1 µg/mL (≈ 0.69 µM)
MBC (Staphylococcus aureus [7]): 1 µg/mL (≈ 0.69 µM)
MBC (Staphylococcus aureus [8]): 1 µg/mL (≈ 0.69 µM)
MBC (Staphylococcus aureus [9]): 2 µg/mL (≈ 1.38 µM)
MBC (Staphylococcus aureus [10]): 1 µg/mL (≈ 0.69 µM)
MBC (Staphylococcus aureus [11]): 1 µg/mL (≈ 0.69 µM)
MBC (Staphylococcus aureus [12]): 1 µg/mL (≈ 0.69 µM)
MBC (Staphylococcus aureus [13]): 8 µg/mL (≈ 5.52 µM)

Structure (SMILES): O=[N+]([O-])c1ccc(O)c2ncccc12 [NITROXOLINE]
MBEC (Enterococcus faecium [14]): 16 µg/mL
MBEC (Staphylococcus aureus [15]): 16 µg/mL
MBEC (Enterococcus faecalis [16]): 16 µg/mL

Structure (SMILES): Oc1ccc([C@@H]2Nc3ccc(C(F)(F)F)cc3[C@H]3[C@@H]4CC[C@@H](C4)[C@H]32)cc1
MIC (Enterococcus faecium [17]): 2 µg/mL (≈ 5.56 µM)
MIC (Staphylococcus aureus [2]): 2 µg/mL (≈ 5.56 µM)
MIC (Staphylococcus aureus [1]): 2 µg/mL (≈ 5.56 µM)
MIC (Listeria monocytogenes): 2 µg/mL (≈ 5.56 µM)
MIC (Enterococcus faecalis [3]): 2 µg/mL (≈ 5.56 µM)
MIC (Enterococcus faecalis [18]): 2 µg/mL (≈ 5.56 µM)
MIC (Staphylococcus aureus [4]): 2 µg/mL (≈ 5.56 µM)

The next lines start with the values.

MIC (Staphylococcus aureus [1]): > 16 µg/mL
Structure (SMILES): Oc1ccc([C@@H]2Nc3ccccc3[C@H]3[C@@H]4CC[C@@H](C4)[C@H]32)cc1

MIC (Staphylococcus aureus [1]): 8 µg/mL (≈ 22.4 µM)
Structure (SMILES): Oc1ccc([C@@H]2Nc3ccc(OC(F)F)cc3[C@H]3[C@@H]4CC[C@@H](C4)[C@H]32)cc1

MIC (Staphylococcus aureus [1]): 4 µg/mL (≈ 10.2 µM)
Structure (SMILES): Oc1cccc([C@@H]2Nc3ccc(SC(F)(F)F)cc3[C@H]3[C@@H]4CC[C@@H](C4)[C@H]32)c1

MIC (Staphylococcus aureus [1]): 4 µg/mL (≈ 9.58 µM)
Structure (SMILES): Oc1cccc([C@@H]2Nc3ccc(S(F)(F)(F)(F)F)cc3[C@H]3[C@@H]4CC[C@@H](C4)[C@H]32)c1
